Assays:
DENV-2 16681 strain = assay: DENV-2 antiviral assay (eGFP-labeled virus in Vero cells); type: cell-based, Dengue virus; details: DENV-2 16681 eGFP, MOI 0.5, 3 days
Experimental: The antiviral activity of all the compounds of the invention was tested against DENV-2 16681 strain which was labeled with enhanced green fluorescent protein (eGPF; Table 1). The culture medium consists of minimal essential medium supplemented with 2% of heat-inactivated fetal calf serum, 0.04% gentamycin (50 mg/mL) and 2 mM of L-glutamine. Vero cells, obtained from ECACC, were suspended in culture medium and 25 μL was added to 384-well plates (2500 cells/well), which already contain the antiviral compounds. Typically, these plates contain a 4-fold serial dilution of 9 dilution steps of the test compound at 200 times the final concentration in 100% DMSO (200 nL). In addition, each compound concentration is tested in quadruplicate (final concentration range: 25 μM-0.00038 μM). Finally, each plate contains wells which are assigned as virus controls (containing cells and virus in the absence of compound), cell controls (containing cells in the absence of virus and compound) and medium controls (containing medium in the absence of cells, virus and compounds). To the wells assigned as medium control, 25 μL of culture medium was added instead of Vero cells. Once the cells were added to the plates, the plates were incubated for 30 minutes at room temperature to allow the cells to distribute evenly within the wells. Next, the plates were incubated in a fully humidified incubator (37° C., 5% CO2) until the next day. Then, DENV-2 strain 16681, labeled with eGFP, was added at a multiplicity of infection (MOI) of 0.5. Therefore, 15 μL of virus suspension was added to all the wells containing test compound and to the wells assigned as virus control. In parallel, 15 μL of culture medium was added to the medium and cell controls. Next, the plates were incubated for 3 days in a fully humidified incubator (37° C., 5% CO2). At the day of the read out, the eGFP fluorescence was measured using an automated fluorescence microscope at 488 nm (blue laser). Using an in-house LIMS system, inhibition dose response curves for each compound were calculated and the half maximal effective concentration (EC50) was determined. Therefore, the percent inhibition (I) for every test concentration is calculated using the following formula: I=100*(ST−SCC)/(SVC−SCC); ST, SCC and SVC are the amount of eGFP signal in the test compound, cell control and virus control wells, respectively. The EC50 represents the concentration of a compound at which the virus replication is inhibited with 50%, as measured by a 50% reduction of the eGFP fluorescent intensity compared to the virus control. The EC50 is calculated using linear interpolation.

in vitro = type: cell-based; details: African green monkey, CC50
Experimental: In parallel, the toxicity of the compounds was assessed on the same plates. Once the read-out for the eGFP signal was done, 10 μL of resazurin, a cell viability stain, was added to all wells of the 384-well plates. The resazurin assay is based on the reduction of the blue resazurin by NADH, produced by the cells, into the highly fluorescent product, resorufin. The formation of pink fluorescent resorufin is directly related to the number of viable cells in the well. The plates were incubated for an additional 5 hours in a fully humidified incubator (37° C., 5% CO2). Next, the plates were measured on an Infinite reader (Tecan) using an excitation wavelength of 530 nm. The half maximal cytotoxic concentration (CC50) was also determined, defined as the concentration required to reduce the resazurin conversion by 50% compared to that of the cell control wells. Finally, the selectivity index (SI) was determined for the compounds, which was calculated as followed: SI=CC50/EC50.

[1] = Dengue virus, DENV2, Vero, 72 h

| SMILES | EC50 (DENV-2 16681 strain; [1]) [µM] | CC50 (in vitro) [µM] | EC50 (DENV-2 16681 strain; listed as 13A) [µM] | EC50 (DENV-2 16681 strain; listed as 5A) [µM] |
| --- | --- | --- | --- | --- |
| COc1cc(NC(C(=O)c2c[nH]c3cc(OC)ccc23)c2ccc(F)cc2OC)cc(S(C)(=O)=O)c1 (racemic) [Compound 5, 2-(4-fluoro-2-methoxyphenyl)-1-(6-methoxy-1H-indol-3-yl)-2-((3-methoxy-5-(methylsulfonyl)phenyl)amino)ethanone] | 0.002 | 24 | – | – |
| COc1cc(NC(C(=O)c2c[nH]c3cc(F)c(F)cc23)c2ccc(F)cc2OC)cc(S(C)(=O)=O)c1 (racemic) [Compound 7, 1-(5,6-difluoro-1H-indol-3-yl)-2-(4-fluoro-2-methoxyphenyl)-2-((3-methoxy-5-(methylsulfonyl)phenyl)amino)ethanone] | 0.0015 | 5 | – | – |
| COc1cc(NC(C(=O)c2c[nH]c3c(F)c(F)ccc23)c2ccc(F)cc2OC)cc(S(C)(=O)=O)c1 (single isomer, unassigned) [Enantiomer 13A, 1-(6,7-difluoro-1H-indol-3-yl)-2-(4-fluoro-2-methoxyphenyl)-2-((3-methoxy-5-(methylsulfonyl)phenyl)amino)ethanone] | – | 9.5 | 0.017 | – |
| COc1cc(NC(C(=O)c2c[nH]c3cc(Cl)ccc23)c2ccc(F)cc2OC)cc(S(C)(=O)=O)c1 (racemic) [Compound 4, 1-(6-chloro-1H-indol-3-yl)-2-(4-fluoro-2-methoxyphenyl)-2-((3-methoxy-5-(methylsulfonyl)phenyl)amino)ethanone] | 0.0011 | 6.6 | – | – |
| COc1cc(NC(C(=O)c2c[nH]c3cc(OC)c(F)cc23)c2ccc(F)cc2OC)cc(S(C)(=O)=O)c1 (racemic) [Compound 11, 2-(4-fluoro-2-methoxyphenyl)-1-(5-fluoro-6-methoxy-1H-indol-3-yl)-2-((3-methoxy-5-(methylsulfonyl)phenyl)amino)ethanone] | 0.003 | 12 | – | – |
| COc1cc(NC(C(=O)c2c[nH]c3cc(OC)c(Cl)cc23)c2ccc(F)cc2OC)cc(S(C)(=O)=O)c1 (racemic) [Compound 16, 1-(5-chloro-6-methoxy-1H-indol-3-yl)-2-(4-fluoro-2-methoxyphenyl)-2-((3-methoxy-5-(methylsulfonyl)phenyl)amino)ethanone] | 0.00066 | 8.8 | – | – |
| COc1cc(NC(C(=O)c2c[nH]c3c(F)c(F)ccc23)c2ccc(F)cc2OC)cc(S(C)(=O)=O)c1 (racemic) [Compound 13, 1-(6,7-difluoro-1H-indol-3-yl)-2-(4-fluoro-2-methoxyphenyl)-2-((3-methoxy-5-(methylsulfonyl)phenyl)amino)ethanone] | 0.0014 | 7.6 | – | – |
| COc1cc(NC(C(=O)c2c[nH]c3ccc(OC(F)(F)F)cc23)c2ccc(F)cc2OC)cc(S(C)(=O)=O)c1 (racemic) [Compound 18, 2-(4-fluoro-2-methoxyphenyl)-2-((3-methoxy-5-(methylsulfonyl)phenyl)amino)-1-(5-(trifluoromethoxy)-1H-indol-3-yl)ethanone] | 0.00025 | 3.3 | – | – |
| COc1cc(NC(C(=O)c2c[nH]c3cc(C)c(F)cc23)c2ccc(F)cc2OC)cc(S(C)(=O)=O)c1 (racemic) [Compound 9, 2-(4-fluoro-2-methoxyphenyl)-1-(5-fluoro-6-methyl-1H-indol-3-yl)-2-((3-methoxy-5-(methylsulfonyl)phenyl)amino)ethanone] | 0.0016 | 8.8 | – | – |
| COc1cc(NC(C(=O)c2c[nH]c3cc(OC)c(C)cc23)c2ccc(F)cc2OC)cc(S(C)(=O)=O)c1 (racemic) [Compound 10, 2-(4-fluoro-2-methoxyphenyl)-2-((3-methoxy-5-(methylsulfonyl)phenyl)amino)-1-(6-methoxy-5-methyl-1H-indol-3-yl)ethanone] | 0.0011 | 7.8 | – | – |
| COc1cc(NC(C(=O)c2c[nH]c3cc(F)ccc23)c2ccc(F)cc2OC)cc(S(C)(=O)=O)c1 (racemic) [Compound 1, 1-(6-fluoro-1H-indol-3-yl)-2-(4-fluoro-2-methoxyphenyl)-2-((3-methoxy-5-(methylsulfonyl)phenyl)amino)ethanone] | 0.002 | 9.9 | – | – |
| COc1cc(NC(C(=O)c2c[nH]c3cc(OC)ccc23)c2ccc(F)cc2OC)cc(S(C)(=O)=O)c1 (single isomer, unassigned) [Enantiomer 5A, 2-(4-fluoro-2-methoxyphenyl)-1-(6-methoxy-1H-indol-3-yl)-2-((3-methoxy-5-(methylsulfonyl)phenyl)amino)ethanone] | – | 24 | – | 0.07 |
| COc1cc(NC(C(=O)c2c[nH]c3cc(F)c(C)cc23)c2ccc(F)cc2OC)cc(S(C)(=O)=O)c1 (racemic) [Compound 14, 2-(4-fluoro-2-methoxyphenyl)-1-(6-fluoro-5-methyl-1H-indol-3-yl)-2-((3-methoxy-5-(methylsulfonyl)phenyl)amino)ethanone] | 0.0015 | 5.3 | – | – |
| COc1cc(NC(C(=O)c2c[nH]c3c(C)c(Cl)ccc23)c2ccc(F)cc2OC)cc(S(C)(=O)=O)c1 (racemic) [Compound 3, 1-(6-chloro-7-methyl-1H-indol-3-yl)-2-(4-fluoro-2-methoxyphenyl)-2-((3-methoxy-5-(methylsulfonyl)phenyl)amino)ethanone] | 0.00058 | 7.2 | – | – |
| COc1cc(NC(C(=O)c2c[nH]c3c(C)c(F)ccc23)c2ccc(F)cc2OC)cc(S(C)(=O)=O)c1 (racemic) [Compound 2, 2-(4-fluoro-2-methoxyphenyl)-1-(6-fluoro-7-methyl-1H-indol-3-yl)-2-((3-methoxy-5-(methylsulfonyl)phenyl)amino)ethanone] | 0.0013 | 8 | – | – |
| COc1cc(NC(C(=O)c2c[nH]c3ccc(C)cc23)c2ccc(F)cc2OC)cc(S(C)(=O)=O)c1 (racemic) [Compound 15, 2-(4-fluoro-2-methoxyphenyl)-2-((3-methoxy-5-(methylsulfonyl)phenyl)amino)-1-(5-methyl-1H-indol-3-yl)ethanone] | 0.0015 | 7.8 | – | – |
| COc1cc(NC(C(=O)c2c[nH]c3c(C)cc(F)cc23)c2ccc(F)cc2OC)cc(S(C)(=O)=O)c1 (racemic) [Compound 8, 2-(4-fluoro-2-methoxyphenyl)-1-(5-fluoro-7-methyl-1H-indol-3-yl)-2-((3-methoxy-5-(methylsulfonyl)phenyl)amino)ethanone] | 0.0028 | 7.6 | – | – |
| COc1cc(NC(C(=O)c2c[nH]c3ccc(C(F)(F)F)cc23)c2ccc(F)cc2OC)cc(S(C)(=O)=O)c1 (racemic) [Compound 17, 2-(4-fluoro-2-methoxyphenyl)-2-((3-methoxy-5-(methylsulfonyl)phenyl)amino)-1-(5-(trifluoromethyl)-1H-indol-3-yl)ethanone] | 0.00024 | 3.5 | – | – |
